Test [1] deals with boar spermatozoa. Put plainly: Zinc signature (FZ3, image-based flow cytometry) of boar spermatozoa after 4 hours of in vitro capacitation (IVC). It is filed as cell-based, Sus scrofa. The text has this:
Fresh boar spermatozoa were capacitated using a protocol that rendered them capable of recognizing and binding to ZP, as well as undergoing acrosomal exocytosis and penetrating the oocyte ZP^11. IVC-induced protein tyrosine phosphorylation changes are shown in FIG. 3; acrosomal status and plasma membrane changes are shown in FIG. 4A and FIG. 4B. Briefly, spermatozoa were washed of seminal plasma once with noncapacitating media (NCM), a modified TL-HEPES medium, free of calcium dichloride (CaCl2) and addition of 11 mM D-glucose, with pH adjusted to 7.2. Spermatozoa were then resuspended in 0.5 mL in vitro capacitation (IVC) media, TL-HEPES-PVA supplemented with 5 mM sodium pyruvate, 11 mM D-glucose, 2 mM CaCl2, 2 mM sodium bicarbonate, and 2% (m/v) bovine serum albumin, and incubated in a 37° C. water bath for 4 hours, with sperm rotation performed every 60 minutes. Control incubations under non-IVC conditions used NCM. Proteasome inhibitors (100 μM MG-132 and 10 μM Epox/CLBL/MG-132) were mixed with IVC media prior to sperm pellet resuspension. 100 μM M MG-132 and ‘100 μM’ vehicle contained 0.5% (v/v) DMSO. 10 μM Epox/CLBL/MG-132 and ‘10 μM’ vehicle contained 0.3% (v/v) DMSO. PVA (polyvinyl alcohol) helped to reduce sperm aggregation and spermatozoa were pipetted repeatedly to dissociate sperm aggregates in a satisfactory manner prior to IBFC data acquisition. To confirm normal capacitation in the experimental IVC media, compared to 15 mM sodium bicarbonate IVC media, normal hyperactivation status was recorded and tyrosine phosphorylation status was normal (FIG. 3). Unlike murine or rodent sperm tyrosine phosphorylation, porcine tyrosine phosphorylation is much more modest, with less prominent changes during the course of capacitation. Therefore new bands after capacitation appear only at the molar weights of 32 kDa (acrosin binding protein), and 21 kDa protein (phospholipid hydroperoxide glutathione peroxidase). […] Final acrosome and plasma membrane modification status is similar at end of IVC regardless of the two IVC treatment conditions; however, the rate of change and cell death is faster in 15 mM sodium bicarbonate containing medium than experimental IVC medium (FIGS. 4A and 4B).
(§1) Upon 4 hours of IVC, sample size of 100 μL (4 million spermatozoa) were incubated 30 minutes with 1:200 H33342, 1:200 PI, and 1:100 FZ3 for epifluorescence microscopy. Lower probe concentrations were necessary for IBFC due to camera detection differences, thus 1:1000, 1:1000, and 1:500 were used, respectively, with inclusion of 1:1000 PNA-AF647. For Fluo-4 calcium probe, we followed manufacturer protocol using identical cell concentrations.
IBFC data acquisition was performed following previous methodology^56. Specifically, using a FlowSight flow cytometer (FS) fitted with a 20× microscope objective (numerical aperture of 0.9) with an imaging rate up to 2000 events per sec. The sheath fluid was PBS (without Ca^2+ or Mg^2+). The flow-core diameter and speed was 10 μm and 66 mm per sec, respectively. Raw image data were acquired using INSPIRE® software. To produce the highest resolution, the camera setting was at 1.0 μm per pixel of the charged-coupled device. In INSPIRE® FS data acquisition software, two brightfield channels were collected (channels 1 & 9), one FZ3 image (channel 2), one PI image (channel 5), one side scatter (SSC; channel 6), one H33342 (channel 7), and one PNA-AF647 image (channel 11), with a minimum of 10,000 spermatozoa collected. The following lasers and power settings were used: 405 nm (to excite H33342): 10 mW; 488 nm (to excite FZ3): 60 mW; 561 nm (to excite PI): 40 mW, 642 nm (to excite PNA-AF647): 25 mW; and 785 nM SSC laser: 10 mW.
Data were analyzed using IDEAS® analysis software from AMNIS EMD Millipore. Gating approach used standard focus and single cell gating calculations created by IDEAS software (FIG. 2A, left and middle panels). […]

In test [2] the test system is boar spermatozoa. The test can be described thus: TPEN Zn chelation of spermatozoa, FZ3 zinc probe and Fluo-4 calcium probe fluorescence. In kind it is cell-based, Sus scrofa. The following applies: 10 μM, 40 million sperm per mL, 1 hour. On the procedure: Zn^2+ chelation was performed using TPEN (membrane permeable). 10 μM TPEN was incubated with 40 million sperm per mL for 1 hour. Stock TPEN: 1 mM in 1:100 EtOH:H2O.
as §1
IBFC data acquisition was performed following previous methodology^56. […]
Data were analyzed using IDEAS® analysis software from AMNIS EMD Millipore. […] Events in focus were further gated to analyze only a single spermatozoa by plotting H33342 fluorescence area by aspect ratio (FIG. 2A, middle panel). […] Such mask was created by taking a morphology mask of the brightfield (FIG. 2B, first column), subtracting a 4-pixel dilation of H33342 (FIG. 2B, second column), resulting in a mask to analyze fluorescence in the tail region only (FIG. 2B, third and fourth columns). […] This combined gating and masking strategy shown in FIG. 2C provided robust clean data, ready for signature analysis by plotting FZ3 intensity of this masked region, which is impossible with traditional flow cytometry. […]

Where [3] appears, read: 100 μM in IVC media, 4 hours 37° C., pre-sperm rich fraction, mean±s.e.m., 3 biological replicates, 10,000 cells.

Consider three compounds from patent US20210270815A1, “SPERM FERTILITY CAPACITY TEST AND SPERM DECAPACITATING SUPPLEMENT” (priority 2018, published 2021).

Residues, ends and D or L forms follow the SMILES beside them. *: point of attachment. Cbz = O=C(OCc1ccccc1)*

`CC(C)C[C@@H](C=O)NC(=O)[C@H](CC(C)C)NC(=O)[C@H](CC(C)C)NC(=O)OCc1ccccc1` [MG132] (Cbz-Leu-Leu-Leu-aldehyde): in the test on boar spermatozoa [1] (setting [3]), the “Signature 1 (portion of spermatozoa with zinc signature 1)” value is given as 30.8% ± 13.1%^B, the “Signature 2 (portion of spermatozoa with zinc signature 2)” value is 32.9% ± 19.5%, the “Signature 3 (portion of spermatozoa with zinc signature 3)” value was 31.0% ± 4.9%^B and the “Signature 4 (portion of spermatozoa with zinc signature 4)” value is listed as 5.4% ± 4.9%^AB. For the same compound, in the test on boar spermatozoa [1] (added to IVC conditions, pre-sperm rich fraction, P=0.0271 (signatures 1 & 2 combined P=0.0008)), the “Retention of zinc signature 1 during IVC as compared to IVC+vehicle” value was “significantly higher portion of spermatozoa retained signature 1”.
As for `c1ccc(CN(CCN(Cc2ccccn2)Cc2ccccn2)Cc2ccccn2)nc1` [TPEN, N,N,N′,N′-Tetrakis(2-pyridinylmethyl)-1,2-ethanediamine], in the test on boar spermatozoa [2], the “FZ3 fluorescence / zinc signature after Zn chelation, compared to vehicle” value is “removed a majority of FZ3 fluorescence to signature 3 and 4 states”; the “Fluo-4 calcium probe intensity compared to vehicle” value was “did not reduce Fluo-4 calcium probe intensity”.
`[Cl-].[Cl-].[Zn+2]` [ZnCl2, zinc chloride]: the “Zinc signature after IVC with exogenous zinc” value in the test on boar spermatozoa [1] (1 mM added to IVC medium) was “retained signature 1”.
